# In patent US20110178072A1, “STEREOSPECIFICITY OF METHYLSULFINYL REDUCTION” (priority 2008, published 2011):
# Columns and labels:
# [1] = tested on: yeast fRMsr-transfected SK-Hep1 cells; experiment: Growth and morphology of yeast fRMsr-expressing SK-Hep1 cells on Met sulfoxide media; type: cell-based, human; details: 0.1 mM
# Procedure: Proliferation Assay-Cell growth was quantified using colorimetric MTS assay (Promega). Cells in regular DMEM medium were plated in 96-well plates at 5×10^3 cells/well, washed with PBS, and specialized DMEM media were added that contained Met, Met-SO, Met-RO, or Met-RSO 24 hours after plating. To assay for cell proliferation, a tetrazolium compound [3-(4,5-dimethylthiazol-2-yl)-5-(3-carboxymethoxyphenyl)-2-(4-sulfophenyl)-2H-tetrazolium, inner salt; MTS] and an electron coupling reagent (phenazine methosulfate; PMS) were mixed according to the manufacturer's protocol and then 20 μL of the mixture were added to 100 μL of phenol red-excluded media that further replaced cell culture media. After 90 minutes of incubation at 37° C. in the atmosphere of 5% CO2, cell proliferation was measured at indicated time periods from 0 to 96 hours at 450 nm in a plate reader. Direct counting of viable cells using 0.2% trypan blue was done in 6-well plates. Transfection of […] into SK-Hep1 cells-[…]-tag sequence was cloned at the C-terminus of […] sequence was inserted into a mammalian expression vector, pCI-neo (Promega), and the resulting construct was verified by DNA sequencing. […] To establish a stable cell line, cells were selected in the presence of 800 μg/mL G418 sulfate (Promega), and further maintained in the presence of 400 μg/mL G418 sulfate. […]
# [2] = tested on: ATF3; experiment: Western blot analysis of ATF3 in SK-Hep1 cells grown on Met and Met sulfoxide media; type: cell-based, human; details: 72 hours, compared with cells on Met or Met-SO
# Procedure: Analysis of SK-Hep1 and fRMsr-transfected SK-Hep1 cells—SK-Hep1 and fRMsr-transfected SK-Hep1 cells were plated in 6-well plates at 7.5×10^4 cells/well in regular DMEM medium. The medium was changed to Met-free DMEM supplemented with either Met or individual Met sulfoxides at 24 hours after plating. Cells were then collected every 24 hours until 96 hours. Protein concentration was measured by the Bradford assay and the samples were probed by standard immunoblot assays with polyclonal MsrA (kindly provided by Bertrand Friguet), cystathionine beta synthase (CBS) (kindly provided by Ruma Banerjee), and activating transcription factor 3 (ATF3) (Santa Cruz Biotechnology) antibodies.
Structure (SMILES),Growth of fRMsr-transfected cells [1],Expression levels of ATF3 [2]
"C[S@@+]([O-])CC[C@H](N)C(=O)O [Met-RO, methionine-R-sulfoxide]",essentially indistinguishable from that of cells grown in the presence of Met,low expression levels of ATF3
"C[S@+]([O-])CC[C@H](N)C(=O)O [Met-SO, methionine-S-sulfoxide]",essentially indistinguishable from that of cells grown in the presence of Met,
